Where “and” joins values, the source holds several entries; their conditions need not be identical. Equal values may be shown once. Entries after “also recorded” stand apart in the source; their conditions may differ.
What was measured:
[1] = test system: hippocampal slices from APP/PS1 mice; assay: CA1 LTP in hippocampal slices of APP/PS1 and WT mice (TSA)
Procedure: At this age the Tg mice just start showing the synaptic plasticity and memory impairments [A29] (herein incorporated by reference in its entirety). Basal synaptic transmission (BST) was similar between APP/PS1 and WT mice. We found no difference in BST among the 2 groups as previously shown in mice of this age [A29] (herein incorporated by reference in its entirety). Hippocampal slices were then perfused with TSA (1.65 μM) for 30 min before inducing LTP through tetanic stimulation of the Schaeffer collateral pathway. Potentiation in TSA treated APP/P S1 slices was far greater than in vehicle-treated APP/PS1 slices (FIG. 17). […] The observation that inspired these studies was the result of a series of experiments in which we tested whether a brief application of the HDAC inhibitor TSA was capable of rescuing the defect in LTP shown by slices from 3-4 month-old APP/PS1 mice (for a detailed description of the experiments showing the characterization of these mice [B50]; herein incorporated by reference in its entirety). At this age the transgenic mice just start showing the synaptic plasticity and memory impairments [B14, B50] (each herein incorporated by reference in its entirety)). […] (each herein incorporated by reference in its entirety), basal synaptic transmission (BST) was similar between APP/PS1 and WT mice. Hippocampal slices were then perfused with TSA (1.65 nM) for 30 min before inducing LTP through tetanic stimulation of the Schaeffer collateral pathway. Potentiation in TSA treated APP/PS1 slices was far greater than in vehicle-treated APP/PS1 slices (two-way ANOVA: F1,11=13.166, p=0.004; FIG. 17). […] Thus, HDAC inhibition is capable of rescuing the defect in LTP in the APP/PS1 animal model of Aβ deposition.

[2] = target: T1, HDAC7 (Homo sapiens, UniProt Q8WUI4); assay: HDAC7 fluorogenic activity assay; settings: Repeat1/Repeat2, listed as OA2
T1 sequence (Q8WUI4 518-952 limits assumed): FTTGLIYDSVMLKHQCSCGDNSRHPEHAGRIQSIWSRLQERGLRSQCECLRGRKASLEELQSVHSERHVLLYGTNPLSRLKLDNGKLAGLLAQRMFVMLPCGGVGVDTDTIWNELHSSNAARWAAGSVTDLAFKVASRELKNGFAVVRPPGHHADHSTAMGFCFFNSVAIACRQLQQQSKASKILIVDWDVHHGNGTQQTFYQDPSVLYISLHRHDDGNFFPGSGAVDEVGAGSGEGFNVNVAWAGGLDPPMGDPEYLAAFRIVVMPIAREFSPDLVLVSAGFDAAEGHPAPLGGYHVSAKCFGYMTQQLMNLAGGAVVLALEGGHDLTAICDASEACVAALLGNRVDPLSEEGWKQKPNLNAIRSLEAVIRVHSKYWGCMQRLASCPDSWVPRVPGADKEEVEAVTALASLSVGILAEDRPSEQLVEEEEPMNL

[3] = test system: Aβ42-treated slices; assay: LTP in Aβ42-treated hippocampal slices (YF2); settings: 200 nM Aβ42-treated slices; YF2 1 μM for 30 min prior to the θ-burst
Procedure: Next, we checked if YF2 could attenuate synaptic and cognitive dysfunction after Aβ elevation. […] Next, we induced LTP or contextual fear memory as well as reference memory in the presence of oligomeric Aβ42, or vehicle. In the LTP experiments 200 nM Aβ42 or vehicle were perfused through the bath solution for 20 min prior to the application of the θ-burst. In the behavioral experiments 200 nM Aβ42 (in a final volume of 1 μl over 1 min) or vehicle were bilaterally infused 15 min prior to the foot shock or 15 min prior to the 1st trial (for the 1st group of tests in a 2-day radial arm water maze (RAWM) test assessing reference memory^[P34] (herein incorporated by reference in its entirety)) and 15 min prior to the 7th trial (for the 2nd group of tests of the RAWM) into dorsal hippocampus of the animal that had been pre-implanted with a cannula the week before. Aβ reduced LTP and both reference and contextual fear memory (FIG. 66).

[4] = target: T2, HDAC8 (Homo sapiens, UniProt Q9BY41); assay: HDAC8 fluorogenic activity assay; settings: for % Activity: Repeat1/Repeat2, listed as OA2
T2 sequence (Q9BY41 1-377): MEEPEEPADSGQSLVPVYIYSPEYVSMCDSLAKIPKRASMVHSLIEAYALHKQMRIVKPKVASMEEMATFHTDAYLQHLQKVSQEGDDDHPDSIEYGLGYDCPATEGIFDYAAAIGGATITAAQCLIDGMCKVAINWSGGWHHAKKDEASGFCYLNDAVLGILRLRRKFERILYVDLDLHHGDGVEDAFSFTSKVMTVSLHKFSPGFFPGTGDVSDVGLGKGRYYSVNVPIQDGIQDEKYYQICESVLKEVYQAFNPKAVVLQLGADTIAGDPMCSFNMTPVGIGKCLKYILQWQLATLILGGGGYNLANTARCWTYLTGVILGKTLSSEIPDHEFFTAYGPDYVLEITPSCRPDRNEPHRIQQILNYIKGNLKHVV

[5] = target: T3, HDAC11 (Homo sapiens, UniProt Q96DB2); assay: HDAC11 fluorogenic activity assay; settings: for % Activity: Repeat1/Repeat2, listed as OA2
T3 sequence (Q96DB2 1-347): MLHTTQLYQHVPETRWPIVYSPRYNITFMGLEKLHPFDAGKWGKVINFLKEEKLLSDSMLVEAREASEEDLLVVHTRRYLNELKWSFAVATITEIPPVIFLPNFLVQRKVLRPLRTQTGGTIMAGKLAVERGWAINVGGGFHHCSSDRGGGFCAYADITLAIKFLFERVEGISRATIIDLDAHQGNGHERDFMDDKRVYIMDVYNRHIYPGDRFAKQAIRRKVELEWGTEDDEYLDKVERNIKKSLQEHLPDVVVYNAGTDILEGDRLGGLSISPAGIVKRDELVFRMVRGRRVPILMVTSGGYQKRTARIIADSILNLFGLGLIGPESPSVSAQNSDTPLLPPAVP

Compound: CC(/C=C/C(=O)NO)=C\[C@@H](C)C(=O)c1ccc(N(C)C)cc1 [TSA, trichostatin A]
- baseline transmission ([1]; APP/PS1 and WT slices that received no tetanus): did not affect
- amplitude of LTP in WT slices ([1]; WT slices, TSA perfused 30 min): did not change; also recorded: no effect
- potentiation (LTP) vs vehicle-treated APP/PS1 slices ([1]; slices of 3-4 month-old APP/PS1 mice, TSA perfused 30 min before tetanus): far greater; also recorded: reverses

Compound: CCOc1cccc(OCCN(C)C)c1C(=O)Nc1ccc(Cl)c(C(F)(F)F)c1 [YF2]
- % Activity ([2]; OA2 Log[nM] 0.5): 103.11% and 97.69%
- % Activity ([2]; OA2 Log[nM] 1.0): 91.37% and 91.47%
- % Activity ([2]; OA2 Log[nM] 1.5): 101.63% and 104.98%
- % Activity ([2]; OA2 Log[nM] 2.0): 104.61% and 97.68%
- % Activity ([2]; OA2 Log[nM] 2.5): 95.80% and 95.75%
- % Activity ([2]; OA2 Log[nM] 3.0): 96.02% and 98.69%
- % Activity ([2]; OA2 Log[nM] 3.5): 100.73% and 92.77%
- % Activity ([2]; OA2 Log[nM] 4.0): 90.73% and 101.73%
- % Activity ([2]; OA2 Log[nM] 4.5): 95.78% and 99.80%
- % Activity ([2]; OA2 Log[nM] 5.3): 96.89% and 100.04%
- LTP deficit [3]: ameliorated; also recorded: rescues
- IC50 [4]: > 200 µM
- % Activity ([4]; OA2 Log[nM] 0.5): 101.88% and 103.15%
- % Activity ([4]; OA2 Log[nM] 1.5): 102.04%
- % Activity ([4]; OA2 Log[nM] 2.0): 108.80%
- % Activity ([4]; OA2 Log[nM] 3.0): 84.45%
- % Activity ([4]; OA2 Log[nM] 3.5): 109.88%
- % Activity ([4]; OA2 Log[nM] 4.5): 85.17% and 86.60%
- % Activity ([4]; OA2 Log[nM] 5.3): 58.33% and 105.63%
- IC50 [5]: > 200 µM
- % Activity ([5]; OA2 Log[nM] 0.5): 86.81%
- % Activity ([5]; OA2 Log[nM] 4.5): 108.09%
- % Activity ([5]; OA2 Log[nM] 5.3): 132.07% and 115.35%
